This experiment is described as follows: Waving efficiency at various pH, compounds (i) and (ii) tested singly (FIG. 1). The conditions noted are these: agent contains the compound at 2% by mass in terms of thioglycolic acid. From the text:
The hair processing agents tested herein contain the compound at 2% by mass in terms of thioglycolic acid. […] Consequently, the compounds (i) and (ii) in combination provide a permanent waving performance over a wide pH range.

Counter-ions that a name gives are not always drawn.

For the molecule `O=C1OCCC1S` (centres unmarked) [Synthetic Example 1, 2-mercapto-4-butyrolactone], the “Changes of waving efficiency at various pH (FIG. 1)” value is “high waving efficiency in an acidic to neutral pH range”.
Then `NCCS` [compound (ii), cysteamine hydrochloride], with “low waving efficiency at acidic pH, but the waving efficiency linearly increases with the pH increase”.

Source of the values: patent US8961946B2, “Hair processing agent and method for permanent waving hair” (Showa Denko K.K., priority 2004, dated 2015).
